In paper PMC4809294, “STP10 encodes a high-affinity monosaccharide transporter and is induced under low-glucose conditions in pollen tubes of Arabidopsis” (Journal of Experimental Botany, 2016):

Tests used:
STP10 (AtSTP10) [1] = target: T1, STP10 (AtSTP10) (Arabidopsis thaliana, UniProt Q9LT15); assay: competition of […]glucose uptake in STP10-expressing yeast; also direct […]galactose uptake; type: cell-based; conditions: 10 µM [14C]glucose, 10-fold excess (100 µM) unlabelled competitor
T1 sequence (Q9LT15 1-514): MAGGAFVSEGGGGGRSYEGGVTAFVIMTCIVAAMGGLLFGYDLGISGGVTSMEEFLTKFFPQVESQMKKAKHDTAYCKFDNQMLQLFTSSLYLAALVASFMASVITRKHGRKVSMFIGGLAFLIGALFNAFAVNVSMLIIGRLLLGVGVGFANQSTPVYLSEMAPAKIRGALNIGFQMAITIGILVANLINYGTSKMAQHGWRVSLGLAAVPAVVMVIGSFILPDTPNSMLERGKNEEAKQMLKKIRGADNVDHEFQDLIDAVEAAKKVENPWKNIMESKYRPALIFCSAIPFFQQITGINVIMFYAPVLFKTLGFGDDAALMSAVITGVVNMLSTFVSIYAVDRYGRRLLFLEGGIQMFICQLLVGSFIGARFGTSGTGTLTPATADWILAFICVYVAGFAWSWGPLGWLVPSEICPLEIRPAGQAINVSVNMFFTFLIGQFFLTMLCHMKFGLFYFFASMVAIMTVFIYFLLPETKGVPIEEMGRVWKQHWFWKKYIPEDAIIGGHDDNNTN

STP10 (AtSTP10) [2] = target: T1, STP10 (AtSTP10); assay: competition of […]glucose uptake in STP10-expressing yeast; type: cell-based; conditions: 10 µM [14C]glucose, 10-fold excess (100 µM) unlabelled competitor

% remaining [14C]glucose uptake (STP10 (AtSTP10) [1]) | % remaining [14C]glucose uptake (STP10 (AtSTP10) [2]) | Compound
41% | – | OC[C@H]1OC(O)[C@H](O)[C@@H](O)[C@H]1O (some centres unmarked) [galactose]
– | 64% | OC[C@H]1OC(O)[C@@H](O)[C@@H](O)[C@@H]1O (some centres unmarked) [mannose]
